# According to US11447466B2, “Substituted indole compounds useful as inhibitors of TLR7/8/9” (BRISTOL-MYERS SQUIBB COMPANY, priority 2017, dated 2022):
# Legend:
# Type in all cases: cell-based
# [1] = biological target: T1, human TLR9 (Homo sapiens, UniProt Q9NR96); assay: TLR9 inhibition reporter assay (HEK-Blue SEAP reporter, ODN2006 stimulation); details: HEK-Blue cells overexpressing human TLR9, SEAP reporter, ODN2006 5 nM, 22 hour incubation
# T1 construct: host or cells: HEK-Blue cells
# T1 sequence (Q9NR96 26-1032): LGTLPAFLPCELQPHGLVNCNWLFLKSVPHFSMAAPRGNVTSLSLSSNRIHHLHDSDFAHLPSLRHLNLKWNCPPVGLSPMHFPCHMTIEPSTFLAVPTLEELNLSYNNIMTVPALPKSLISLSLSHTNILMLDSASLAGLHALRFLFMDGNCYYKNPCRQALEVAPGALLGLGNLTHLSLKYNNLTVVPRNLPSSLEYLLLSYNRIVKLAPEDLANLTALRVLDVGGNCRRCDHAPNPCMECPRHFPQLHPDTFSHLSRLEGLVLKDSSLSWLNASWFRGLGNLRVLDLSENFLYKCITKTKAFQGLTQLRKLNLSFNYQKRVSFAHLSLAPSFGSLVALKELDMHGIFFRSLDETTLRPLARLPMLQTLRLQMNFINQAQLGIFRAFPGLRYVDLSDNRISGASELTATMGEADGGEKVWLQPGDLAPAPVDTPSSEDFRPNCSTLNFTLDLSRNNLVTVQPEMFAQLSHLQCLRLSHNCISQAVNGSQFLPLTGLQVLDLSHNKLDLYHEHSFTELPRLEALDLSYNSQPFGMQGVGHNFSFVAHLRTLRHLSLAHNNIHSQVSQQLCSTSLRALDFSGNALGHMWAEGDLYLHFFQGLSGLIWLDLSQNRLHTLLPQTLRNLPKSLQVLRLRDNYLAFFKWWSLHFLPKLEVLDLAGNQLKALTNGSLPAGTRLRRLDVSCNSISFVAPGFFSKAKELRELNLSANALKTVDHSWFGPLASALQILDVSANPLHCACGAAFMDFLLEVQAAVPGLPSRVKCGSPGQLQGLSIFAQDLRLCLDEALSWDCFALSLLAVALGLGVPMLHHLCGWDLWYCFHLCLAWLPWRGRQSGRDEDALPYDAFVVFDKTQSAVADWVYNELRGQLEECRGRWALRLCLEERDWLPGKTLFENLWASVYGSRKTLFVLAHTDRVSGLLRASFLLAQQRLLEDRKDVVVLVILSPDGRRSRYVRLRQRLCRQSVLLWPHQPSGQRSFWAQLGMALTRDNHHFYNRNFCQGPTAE
# How it was run: (§1)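 Human TLR7/8/9 HEK-Blue reporter lines; dose range 0.05 nM–50 μM; 30 min RT preincubation; stimulus gardiquimod 7.5 μM / R848 15.9 μM / ODN2006 5 nM respectively; 22 h, 37 °C; SEAP detected colorimetrically.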
# [2] = biological target: T2, human TLR8 (Homo sapiens, UniProt Q9NR97); assay: TLR8 inhibition reporter assay (HEK-Blue SEAP reporter, R848 stimulation); details: HEK-Blue cells overexpressing human TLR8, SEAP reporter, R848 15.9 μM, 22 hour incubation
# T2 construct: host or cells: HEK-Blue cells
# T2 sequence (Q9NR97 27-1041): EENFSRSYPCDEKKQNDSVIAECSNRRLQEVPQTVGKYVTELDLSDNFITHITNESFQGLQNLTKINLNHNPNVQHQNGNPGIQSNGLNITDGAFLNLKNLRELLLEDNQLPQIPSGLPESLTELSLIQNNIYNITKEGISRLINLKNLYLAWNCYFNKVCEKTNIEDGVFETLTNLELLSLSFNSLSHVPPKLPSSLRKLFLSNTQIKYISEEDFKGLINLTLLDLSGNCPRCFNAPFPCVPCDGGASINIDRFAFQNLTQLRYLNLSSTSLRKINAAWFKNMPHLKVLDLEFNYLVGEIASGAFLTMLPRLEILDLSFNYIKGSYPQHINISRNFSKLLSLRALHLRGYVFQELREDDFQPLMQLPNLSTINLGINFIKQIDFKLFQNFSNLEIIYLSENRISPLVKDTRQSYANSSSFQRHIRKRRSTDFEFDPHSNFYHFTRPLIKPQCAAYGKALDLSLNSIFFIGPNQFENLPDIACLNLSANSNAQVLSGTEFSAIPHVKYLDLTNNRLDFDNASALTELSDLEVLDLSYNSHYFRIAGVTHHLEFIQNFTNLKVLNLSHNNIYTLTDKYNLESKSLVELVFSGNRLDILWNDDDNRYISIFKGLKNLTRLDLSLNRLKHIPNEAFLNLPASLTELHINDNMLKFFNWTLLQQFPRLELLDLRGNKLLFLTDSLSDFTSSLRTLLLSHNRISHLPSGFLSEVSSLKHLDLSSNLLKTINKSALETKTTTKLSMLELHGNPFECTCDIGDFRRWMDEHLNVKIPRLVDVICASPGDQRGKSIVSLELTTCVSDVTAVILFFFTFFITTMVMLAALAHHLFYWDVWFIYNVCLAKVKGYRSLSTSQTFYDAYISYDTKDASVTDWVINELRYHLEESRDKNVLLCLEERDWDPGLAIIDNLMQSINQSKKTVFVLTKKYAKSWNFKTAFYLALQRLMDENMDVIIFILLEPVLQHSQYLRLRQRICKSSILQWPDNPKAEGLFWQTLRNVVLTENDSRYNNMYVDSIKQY
# How it was run: as §1
# [3] = biological target: T3, human TLR7 (Homo sapiens, UniProt Q9NYK1); assay: TLR7 inhibition reporter assay (HEK-Blue SEAP reporter, gardiquimod stimulation); details: HEK-Blue cells overexpressing human TLR7, SEAP reporter, gardiquimod 7.5 μM, 22 hour incubation
# T3 construct: host or cells: HEK-Blue cells
# T3 sequence (Q9NYK1 27-1049): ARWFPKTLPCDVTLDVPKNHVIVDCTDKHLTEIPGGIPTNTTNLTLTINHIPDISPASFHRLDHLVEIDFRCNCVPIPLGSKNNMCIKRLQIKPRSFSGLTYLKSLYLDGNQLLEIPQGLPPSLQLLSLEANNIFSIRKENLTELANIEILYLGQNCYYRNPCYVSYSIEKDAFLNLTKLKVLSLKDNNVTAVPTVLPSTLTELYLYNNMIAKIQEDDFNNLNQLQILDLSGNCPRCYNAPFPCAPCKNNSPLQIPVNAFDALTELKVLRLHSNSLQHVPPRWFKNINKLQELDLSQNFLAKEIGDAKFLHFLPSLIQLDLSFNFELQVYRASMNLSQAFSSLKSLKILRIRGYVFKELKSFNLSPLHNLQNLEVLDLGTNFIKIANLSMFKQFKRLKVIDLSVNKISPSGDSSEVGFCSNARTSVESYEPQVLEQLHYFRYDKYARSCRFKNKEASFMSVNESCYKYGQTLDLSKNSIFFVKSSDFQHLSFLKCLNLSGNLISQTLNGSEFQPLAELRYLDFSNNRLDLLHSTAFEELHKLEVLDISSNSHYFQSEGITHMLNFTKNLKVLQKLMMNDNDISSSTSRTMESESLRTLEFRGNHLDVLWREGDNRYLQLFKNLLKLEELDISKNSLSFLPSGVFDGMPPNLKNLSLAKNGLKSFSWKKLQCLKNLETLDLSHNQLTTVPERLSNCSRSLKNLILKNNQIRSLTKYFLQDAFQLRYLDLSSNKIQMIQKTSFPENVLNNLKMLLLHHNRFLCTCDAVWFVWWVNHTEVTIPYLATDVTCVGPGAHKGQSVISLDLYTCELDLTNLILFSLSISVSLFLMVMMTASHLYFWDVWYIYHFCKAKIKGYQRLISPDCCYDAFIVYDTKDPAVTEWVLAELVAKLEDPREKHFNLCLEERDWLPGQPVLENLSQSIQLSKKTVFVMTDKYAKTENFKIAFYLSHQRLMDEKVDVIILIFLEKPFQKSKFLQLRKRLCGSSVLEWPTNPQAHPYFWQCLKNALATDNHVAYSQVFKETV
# How it was run: as §1
SMILES,IC50 [1] [nM],IC50 [2] [nM],IC50 [3] [nM]
"Cc1c(-c2[nH]c3ccc(C4CCN(C(CCO)CCO)CC4)cc3c2C(C)C)cn(C)c(=O)c1Cl [Example 243, 3-chloro-5-(5-(1-(1,5-dihydroxypentan-3-yl)piperidin-4-yl)-3-isopropyl-1H-indol-2-yl)-1,4-dimethylpyridin-2(1H)-one]",1770,9.1,1.4
"CNC(=O)CN1CCC(c2ccc3[nH]c(-c4cc(C)c(=O)n(CC(C)C)c4)c(C(C)C)c3c2)CC1 [Example 161, 2-(4-(2-(1-isobutyl-5-methyl-6-oxo-1,6-dihydropyridin-3-yl)-3-isopropyl-1H-indol-5-yl)piperidin-1-yl)-N-methylacetamide]",8730,239,50.5
"Cc1cc(-c2[nH]c3ccc(C4CCN(CCC(C)(C)O)CC4)cc3c2C(C)C)c(C)n(C)c1=O [Example 74, 5-(5-(1-(3-hydroxy-3-methylbutyl)piperidin-4-yl)-3-isopropyl-1H-indol-2-yl)-1,3,6-trimethylpyridin-2(1H)-one]",4330,4.9,20.9
"CCNC(=O)CN1CCC(c2ccc3[nH]c(-c4cn(C)c(=O)c(Cl)c4C)c(C(C)C)c3c2)CC1 [Example 155, 2-(4-(2-(5-chloro-1,4-dimethyl-6-oxo-1,6-dihydropyridin-3-yl)-3-isopropyl-1H-indol-5-yl)piperidin-1-yl)-N-ethylacetamide]",21100,24.2,5.3
"Cc1cc(-c2[nH]c3ccc(C4CCN(Cc5ccc(OC(F)(F)F)cc5)CC4)cc3c2C(C)C)cn(C)c1=O [Example 77, 5-(3-isopropyl-5-(1-(4-(trifluoromethoxy)benzyl)piperidin-4-yl)-1H-indol-2-yl)-1,3-dimethylpyridin-2(1H)-one]",7850,50.6,123
"Cc1cc(-c2[nH]c3ccc(C4CCN(CC(N)=O)CC4)cc3c2C(C)C)cn(C)c1=O [Example 150, 2-(4-(2-(1,5-dimethyl-6-oxo-1,6-dihydropyridin-3-yl)-3-isopropyl-1H-indol-5-yl)piperidin-1-yl)acetamide]",11400,4.4,1.2
"CC(C)c1c(-c2cn(C)c(=O)n(C)c2=O)[nH]c2ccc(C3CCNCC3)cc12 [Example 21, 5-(3-isopropyl-5-(piperidin-4-yl)-1H-indol-2-yl)-1,3-dimethylpyrimidine-2,4(1H,3H)-dione]",6540,263,105
"CNC(=O)CN1CCC(c2ccc3[nH]c(-c4nn(C)c(=O)c(C)c4C)c(C(C)C)c3c2)CC1 [Example 131, 2-(4-(3-isopropyl-2-(1,4,5-trimethyl-6-oxo-1,6-dihydropyridazin-3-yl)-1H-indol-5-yl)piperidin-1-yl)-N-methylacetamide]",16200,33.4,245
"Cc1cc(-c2[nH]c3ccc(C4CCN(C5CCS(=O)(=O)C5)CC4)cc3c2C(C)C)cn(C)c1=O (stereo not drawn) [Example 81, 5-(5-(1-(1,1-dioxidotetrahydrothiophen-3-yl)piperidin-4-yl)-3-isopropyl-1H-indol-2-yl)-1,3-dimethylpyridin-2(1H)-one]",≥ 50000,20.3,8.8
"Cc1c(-c2[nH]c3ccc(C4CCN(C(C)(C)C(N)=O)CC4)cc3c2C(C)C)cn(C)c(=O)c1Cl [Example 154, 2-(4-(2-(5-chloro-1,4-dimethyl-6-oxo-1,6-dihydropyridin-3-yl)-3-isopropyl-1H-indol-5-yl)piperidin-1-yl)-2-methylpropanamide]",13800,26.6,4.6
"CNC(=O)CN1CCC(c2ccc3[nH]c(-c4cc(C)c(=O)n(Cc5ccccc5)c4)c(C(C)C)c3c2)CC1 [Example 162, 2-(4-(2-(1-benzyl-5-methyl-6-oxo-1,6-dihydropyridin-3-yl)-3-isopropyl-1H-indol-5-yl)piperidin-1-yl)-N-methylacetamide]",4120,99.4,8.4
"Cc1nc(-c2[nH]c3ccc(C4CCN(C(C)C)CC4)cc3c2C(C)C)cn(C)c1=O [Example 184, 5-(3-isopropyl-5-(1-isopropylpiperidin-4-yl)-1H-indol-2-yl)-1,3-dimethylpyrazin-2(1H)-one]",2120,34.2,71.8
Cc1cc(-c2[nH]c3ccc(C4CCN(Cc5cnn(C(C)C)c5)CC4)cc3c2C(C)C)cn(C)c1=O [Example 227],3040,4.1,3.8
"Cc1cc(-c2[nH]c3ccc(C4CCN(C(C)C)CC4)cc3c2C(C)C)c(C)n(C)c1=O [Example 214, 5-(3-isopropyl-5-(1-isopropylpiperidin-4-yl)-1H-indol-2-yl)-1,3,6-trimethylpyridin-2(1H)-one]",5690,7.9,13.9
